Test results from patent publication US20100317528A1, “HERBICIDE CONTAINING BENZOYLPYRAZOLE COMPOUND” (ISHIHARA SANGYO KAISHA, LTD., priority 2006, published 2010).

Experiments:
Assay type in all cases: in vivo
wheat (Triticum spp.) [1] = assay: Test Example 1: foliar treatment, upland pot test, wheat; details: 31 g/ha active ingredient, observed 17th to 25th day after application; for inhibition at 31 g/ha: Triticum, read-out: Growth inhibition rate (%) Wheat
How it was run: (§1)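 Upland soil pots, sown; foliar spray at pigweed cotyledon–2.0 leaf, velvetleaf 0.1–1.5 leaf, rice 1.0–3.0 leaf, wheat 1.7–3.4 leaf. WP/EC formulations, prescribed a.i. rate, 500 L/ha spray volume + 0.1 vol % spreader. Visual % inhibition, d17–25.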

[2] = tested on: barnyardgrass (Echinochloa crus-galli L.); assay: Test Example 2: soil application on the day after sowing, barnyardgrass; details: 250 g/ha active ingredient, observed 19th to 28th day after application; for inhibition at 250 g/ha: Echinochloa crus-galli, read-out: Growth inhibition rate (%) Barnyardgrass
How it was run: (§2)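 Day-after-sowing soil treatment in 1/170,000 ha pots of upland soil, sprayed at 500 L/ha water volume; % growth inhibition rated by eye 19–28 days later.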

[3] = tested on: prickly sida (Sida spinosa L.); assay: Test Example 1: foliar treatment, upland pot test, prickly sida; details: 31 g/ha active ingredient, observed 17th to 25th day after application; for inhibition at 31 g/ha: Sida spinosa, read-out: Growth inhibition rate (%) Prickly sida
[4] = tested on: redroot pigweed (Amaranthus retroflexus L.); assay: Test Example 1: foliar treatment, upland pot test, redroot pigweed; details: 31 g/ha active ingredient, observed 17th to 25th day after application; for inhibition at 31 g/ha: Amaranthus retroflexus, read-out: Growth inhibition rate (%) Redroot pigweed
How it was run: as §1

[5] = tested on: redroot pigweed (Amaranthus retroflexus L.); assay: Test Example 2: soil application on the day after sowing, redroot pigweed; details: 250 g/ha active ingredient, observed 19th to 28th day after application; for inhibition at 250 g/ha: Amaranthus retroflexus, read-out: Growth inhibition rate (%) Redroot pigweed
How it was run: as §2

[6] = tested on: velvetleaf (Abutilon theophrasti MEDIC.); assay: Test Example 1: foliar treatment, upland pot test, velvetleaf; details: 31 g/ha active ingredient, observed 17th to 25th day after application; for inhibition at 31 g/ha: Abutilon theophrasti, read-out: Growth inhibition rate (%) Velvetleaf
How it was run: as §1

[7] = tested on: velvetleaf (Abutilon theophrasti MEDIC.); assay: Test Example 2: soil application on the day after sowing, velvetleaf; details: 250 g/ha active ingredient, observed 19th to 28th day after application; for inhibition at 250 g/ha: Abutilon theophrasti, read-out: Growth inhibition rate (%) Velvetleaf
How it was run: as §2

corn (Zea mays L.) [8] = assay: Test Example 1: foliar treatment, upland pot test, corn; details: 31 g/ha active ingredient, observed 17th to 25th day after application; for inhibition at 31 g/ha: Zea mays, read-out: Growth inhibition rate (%) Corn
[9] = tested on: green foxtail (Setaria viridis L.); assay: Test Example 2: soil application on the day after sowing, green foxtail; details: 250 g/ha active ingredient, observed 19th to 28th day after application; for inhibition at 250 g/ha: Setaria viridis, read-out: Growth inhibition rate (%) Green foxtail
How it was run: as §2

[10] = tested on: barnyardgrass (Echinochloa crus-galli L.); assay: Test Example 1: foliar treatment, upland pot test, barnyardgrass; details: 31 g/ha active ingredient, observed 17th to 25th day after application; for inhibition at 31 g/ha: Echinochloa crus-galli, read-out: Growth inhibition rate (%) Barnyardgrass
[11] = tested on: soybean (Glycine max Merr.); assay: Test Example 2: soil application on the day after sowing, soybean; details: 250 g/ha active ingredient, observed 19th to 28th day after application; for inhibition at 250 g/ha: Glycine max, read-out: Growth inhibition rate (%) Soybean
How it was run: as §2

corn (Zea mays L.) [12] = assay: Test Example 2: soil application on the day after sowing, corn; details: 250 g/ha active ingredient, observed 19th to 28th day after application; for inhibition at 250 g/ha: Zea mays, read-out: Growth inhibition rate (%) Corn
How it was run: as §2

[13] = tested on: prickly sida (Sida spinosa L.); assay: Test Example 2: soil application on the day after sowing, prickly sida; details: 250 g/ha active ingredient, observed 19th to 28th day after application; for inhibition at 250 g/ha: Sida spinosa, read-out: Growth inhibition rate (%) Prickly sida
How it was run: as §2

rice (Oryza sativa L.) [14] = assay: Test Example 2: soil application on the day after sowing, rice; details: 250 g/ha active ingredient, observed 19th to 28th day after application; for inhibition at 250 g/ha: Oryza sativa, read-out: Growth inhibition rate (%) Rice
How it was run: as §2

[15] = tested on: soybean (Glycine max Merr.); assay: Test Example 1: foliar treatment, upland pot test, soybean; details: 31 g/ha active ingredient, observed 17th to 25th day after application; for inhibition at 31 g/ha: Glycine max, read-out: Growth inhibition rate (%) Soybean
rice (Oryza sativa L.) [16] = assay: Test Example 1: foliar treatment, upland pot test, rice; details: 31 g/ha active ingredient, observed 17th to 25th day after application; for inhibition at 31 g/ha: Oryza sativa, read-out: Growth inhibition rate (%) Rice
How it was run: as §1

[17] = tested on: crabgrass (Digitaria sanguinalis L.); assay: Test Example 1: foliar treatment, upland pot test, crabgrass; details: 31 g/ha active ingredient, observed 17th to 25th day after application; for inhibition at 31 g/ha: Digitaria sanguinalis, read-out: Growth inhibition rate (%) Crabgrass
wheat (Triticum spp.) [18] = assay: Test Example 2: soil application on the day after sowing, wheat; details: 250 g/ha active ingredient, observed 19th to 28th day after application; for inhibition at 250 g/ha: Triticum, read-out: Growth inhibition rate (%) Wheat
Excerpt: Upland field soil was put into a 1/170,000 hectare pot, and seeds of various plants barnyardgrass (Echinochloa crus-galli L.), crabgrass (Digitaria sanquinalis L.), green foxtail (Setaria viridis L.), redroot pigweed (Amaranthus retroflexus L.), prickly sida (Sida spinosa L.), velvetleaf (Abutilon theophrasti MEDIC.), rice (Oryza sativa L.), wheat (Triticum spp.), corn (Zea mays L.) and soybean (Glycine max Merr.)) were sown. On the day after sowing, wettable powders or emulsifiable concentrates of the compounds of the above formula (I) prepared in accordance with a conventional preparation method, were weighed so that the active ingredients became the prescribed amounts, and diluted with water in an amount corresponding to 500 liter per 1 hectare, followed by soil application with a small sprayer.
On the 19th to 28th day after the application, the state of growth of the respective plants was visually observed, and the herbicidal effect was evaluated by a growth inhibition rate (%) of from 0 (equivalent to the non-treated area) to 100% (complete kill).

[19] = tested on: green foxtail (Setaria viridis L.); assay: Test Example 1: foliar treatment, upland pot test, green foxtail; details: 31 g/ha active ingredient, observed 17th to 25th day after application; for inhibition at 31 g/ha: Setaria viridis, read-out: Growth inhibition rate (%) Green foxtail
[20] = tested on: crabgrass (Digitaria sanquinalis L.); assay: Test Example 2: soil application on the day after sowing, crabgrass; details: 250 g/ha active ingredient, observed 19th to 28th day after application; for inhibition at 250 g/ha: Digitaria, read-out: Growth inhibition rate (%) Crabgrass
How it was run: as §2

| SMILES | inhibition at 31 g/ha (wheat (Triticum spp.) [1]) | inhibition at 250 g/ha [2] | inhibition at 31 g/ha [3] | inhibition at 31 g/ha [4] | inhibition at 250 g/ha [5] | inhibition at 31 g/ha [6] | inhibition at 250 g/ha [7] | inhibition at 31 g/ha (corn (Zea mays L.) [8]) | inhibition at 250 g/ha [9] | inhibition at 31 g/ha [10] | inhibition at 250 g/ha [11] | inhibition at 250 g/ha (corn (Zea mays L.) [12]) | inhibition at 250 g/ha [13] | inhibition at 250 g/ha (rice (Oryza sativa L.) [14]) | inhibition at 31 g/ha [15] | inhibition at 31 g/ha (rice (Oryza sativa L.) [16]) | inhibition at 31 g/ha [17] | inhibition at 250 g/ha (wheat (Triticum spp.) [18]) | inhibition at 31 g/ha [19] | inhibition at 250 g/ha [20] | further results |
| --- | --- | --- | --- | --- | --- | --- | --- | --- | --- | --- | --- | --- | --- | --- | --- | --- | --- | --- | --- | --- | --- |
| COCCOc1c(S(C)(=O)=O)ccc(C(=O)c2c(C)nn(C)c2O)c1C [compound 259] |  |  |  |  |  |  |  |  |  |  |  |  |  |  |  |  |  |  |  |  | Growth inhibition rate (%) Wheat (wheat (Triticum spp.) [1]): 0%; Growth inhibition rate (%) Barnyardgrass [2]: 10%; Growth inhibition rate (%) Prickly sida [3]: 60%; Growth inhibition rate (%) Redroot pigweed [4]: 95%; Growth inhibition rate (%) Redroot pigweed [5]: 90%; Growth inhibition rate (%) Velvetleaf [6]: 98%; Growth inhibition rate (%) Velvetleaf [7]: 70%; Growth inhibition rate (%) Corn (corn (Zea mays L.) [8]): 0%; Growth inhibition rate (%) Green foxtail [9]: 60%; Growth inhibition rate (%) Barnyardgrass [10]: 95%; Growth inhibition rate (%) Soybean [11]: 20%; Growth inhibition rate (%) Corn (corn (Zea mays L.) [12]): 0%; Growth inhibition rate (%) Prickly sida [13]: 0%; Growth inhibition rate (%) Rice (rice (Oryza sativa L.) [14]): 10%; Growth inhibition rate (%) Soybean [15]: 95%; Growth inhibition rate (%) Rice (rice (Oryza sativa L.) [16]): 70%; Growth inhibition rate (%) Crabgrass [17]: 95%; Growth inhibition rate (%) Wheat (wheat (Triticum spp.) [18]): 0%; Growth inhibition rate (%) Green foxtail [19]: 100%; Growth inhibition rate (%) Crabgrass [20]: 100% |
| CCOC(=O)c1c(S(C)(=O)=O)ccc(C(=O)c2cnn(CC)c2O)c1Cl [compound 153] | 0% | 100% | 70% | 90% | 100% | 70% | 100% | 0% | 100% | 90% | 0% | 10% | 80% | 70% | 70% | 40% | 80% | 10% | 60% | 100% |  |
| Cn1ncc(C(=O)c2ccc(S(C)(=O)=O)c(Cl)c2Cl)c1O [compound 238] | 0% | 0% | 0% | 50% | 30% | 30% | 0% | 0% | 20% | 0% | 0% | 0% | 0% | 0% | 50% | 0% | 0% | 0% | 0% | 20% |  |
